Data reported in the OligoGym collection.
HELM strings list units from the 5' end as sugar, base in round brackets, then linkage (d deoxyribose, r ribose, m 2'-O-methyl, p phosphodiester). Strings are as the collection lists them, not checked against the first reports. ss, as = sense and antisense strand

Details: siRNA
Further: test system not given here.

Substance	target mRNA knockdown [%]
RNA1{m(A)p.m(A)p.r(C)p.r(C)p.r(C)p.m(A)p.r(C)p.r(C)p.m(A)p.r(C)p.m(A)p.r(G)p.r(C)p.m(U)p.m(A)p.r(G)p.m(A)p.m(A)p.r(C)p.m(U)p.m(U)}|RNA2{r(A)p.r(A)p.r(G)p.r(U)p.r(U)p.r(C)p.m(U)p.m(A)p.r(G)p.r(C)p.r(U)p.r(G)p.r(U)p.r(G)p.r(G)p.r(U)p.r(G)p.r(G)p.r(G)p.r(U)p.r(U)}$$$RNA1{StrandType:ss}|RNA2{StrandType:as}$	44
RNA1{m(A)p.m(A)p.r(C)p.r(C)p.r(C)p.m(A)p.r(C)p.r(C)p.m(A)p.r(C)p.m(A)p.r(G)p.r(C)p.m(U)p.m(A)p.r(G)p.m(A)p.m(A)p.r(C)p.m(U)p.m(U)}|RNA2{r(A)p.r(A)p.r(G)p.r(U)p.r(U)p.r(C)p.r(U)p.r(A)p.r(G)p.r(C)p.r(U)p.r(G)p.r(U)p.r(G)p.r(G)p.r(U)p.r(G)p.r(G)p.r(G)p.r(U)p.r(U)}$$$RNA1{StrandType:ss}|RNA2{StrandType:as}$	51
RNA1{m(A)p.m(A)p.r(C)p.r(C)p.r(C)p.m(A)p.r(C)p.r(C)p.m(A)p.r(C)p.m(A)p.r(G)p.r(C)p.m(U)p.m(A)p.r(G)p.m(A)p.m(A)p.r(C)p.r(U)p.r(U)}|RNA2{r(A)p.r(A)p.r(G)p.r(U)p.r(U)p.r(C)p.m(U)p.r(A)p.r(G)p.r(C)p.r(U)p.r(G)p.r(U)p.r(G)p.r(G)p.r(U)p.r(G)p.r(G)p.r(G)p.r(U)p.r(U)}$$$RNA1{StrandType:ss}|RNA2{StrandType:as}$	32
RNA1{m(A)p.m(A)p.r(C)p.r(C)p.r(C)p.m(A)p.r(C)p.r(C)p.m(A)p.r(C)p.m(A)p.r(G)p.r(C)p.r(U)p.m(A)p.r(G)p.m(A)p.m(A)p.r(C)p.m(U)p.m(U)}|RNA2{r(A)p.r(A)p.r(G)p.r(U)p.r(U)p.r(C)p.r(U)p.r(A)p.r(G)p.r(C)p.r(U)p.r(G)p.r(U)p.r(G)p.r(G)p.r(U)p.r(G)p.r(G)p.r(G)p.r(U)p.r(U)}$$$RNA1{StrandType:ss}|RNA2{StrandType:as}$	42
RNA1{m(A)p.m(A)p.r(U)p.m(A)p.m(A)p.m(G)p.r(C)p.m(A)p.m(G)p.r(C)p.r(U)p.r(C)p.m(G)p.r(C)p.m(G)p.r(C)p.r(U)p.r(C)p.r(C)p.r(T)p.r(T)}|RNA2{r(G)p.r(G)p.r(A)p.r(G)p.r(C)p.r(G)p.r(C)p.r(G)p.r(A)p.r(G)p.r(C)p.r(U)p.r(G)p.r(C)p.r(U)p.r(U)p.r(A)p.r(U)p.r(U)p.r(T)p.r(T)}$$$RNA1{StrandType:ss}|RNA2{StrandType:as}$	64
RNA1{m(A)p.r(A)p.m(A)p.r(C)p.m(C)p.r(C)p.m(C)p.r(U)p.m(A)p.r(G)p.m(A)p.r(G)p.m(G)p.r(G)p.m(C)p.r(A)p.m(A)p.r(G)p.m(U)p.r(T)p.r(T)}|RNA2{r(A)p.r(C)p.r(U)p.r(U)p.r(G)p.r(C)p.r(C)p.r(C)p.r(U)p.r(C)p.r(U)p.r(A)p.r(G)p.r(G)p.r(G)p.r(G)p.r(U)p.r(U)p.r(U)p.r(T)p.r(T)}$$$RNA1{StrandType:ss}|RNA2{StrandType:as}$	62
RNA1{m(A)p.r(A)p.m(A)p.r(C)p.m(C)p.r(U)p.m(C)p.r(A)p.m(G)p.r(C)p.m(C)p.r(C)p.m(U)p.r(A)p.m(A)p.r(C)p.m(G)p.r(G)p.m(U)p.r(T)p.r(T)}|RNA2{r(A)p.m(C)p.m(C)p.r(G)p.r(U)p.r(U)p.r(A)p.r(G)p.r(G)p.r(G)p.m(C)p.r(U)p.r(G)p.r(A)p.r(G)p.r(G)p.r(U)p.r(U)p.r(U)p.r(T)p.r(T)}$$$RNA1{StrandType:ss}|RNA2{StrandType:as}$	28
RNA1{m(A)p.r(A)p.m(A)p.r(C)p.m(C)p.r(U)p.m(C)p.r(A)p.m(G)p.r(C)p.m(C)p.r(C)p.m(U)p.r(A)p.m(A)p.r(C)p.m(G)p.r(G)p.m(U)p.r(T)p.r(T)}|RNA2{r(A)p.r(C)p.r(C)p.r(G)p.r(U)p.r(U)p.r(A)p.r(G)p.r(G)p.r(G)p.r(C)p.r(U)p.r(G)p.r(A)p.r(G)p.r(G)p.r(U)p.r(U)p.r(U)p.r(T)p.r(T)}$$$RNA1{StrandType:ss}|RNA2{StrandType:as}$	51
RNA1{m(A)p.r(A)p.m(A)p.r(C)p.m(G)p.r(A)p.m(G)p.r(A)p.m(G)p.r(A)p.m(G)p.r(C)p.m(C)p.r(C)p.m(A)p.r(C)p.m(C)p.r(U)p.m(U)p.r(T)p.r(T)}|RNA2{r(A)p.r(A)p.r(G)p.r(G)p.r(U)p.r(G)p.r(G)p.r(G)p.m(C)p.r(U)p.m(C)p.r(U)p.m(C)p.r(U)p.m(C)p.r(G)p.r(U)p.r(U)p.r(U)p.r(T)p.r(T)}$$$RNA1{StrandType:ss}|RNA2{StrandType:as}$	37
RNA1{m(A)p.r(A)p.m(A)p.r(C)p.m(G)p.r(U)p.m(G)p.r(A)p.m(C)p.r(U)p.m(U)p.r(U)p.m(G)p.r(G)p.m(U)p.r(U)p.m(C)p.r(C)p.m(U)p.r(T)p.r(T)}|RNA2{r(A)p.m(G)p.m(G)p.r(A)p.r(A)p.r(C)p.r(C)p.r(A)p.r(A)p.r(A)p.m(G)p.r(U)p.r(C)p.r(A)p.r(C)p.m(G)p.r(U)p.r(U)p.r(U)p.r(T)p.r(T)}$$$RNA1{StrandType:ss}|RNA2{StrandType:as}$	37
RNA1{m(A)p.r(A)p.m(A)p.r(G)p.m(C)p.r(G)p.m(G)p.r(U)p.m(G)p.r(G)p.m(A)p.r(U)p.m(C)p.r(A)p.m(G)p.r(C)p.m(U)p.r(C)p.m(U)p.r(T)p.r(T)}|RNA2{r(A)p.m(G)p.r(A)p.m(G)p.r(C)p.r(U)p.r(G)p.r(A)p.r(U)p.r(C)p.r(C)p.r(A)p.r(C)p.r(C)p.m(G)p.r(C)p.r(U)p.r(U)p.r(U)p.r(T)p.r(T)}$$$RNA1{StrandType:ss}|RNA2{StrandType:as}$	43
RNA1{m(A)p.r(A)p.m(A)p.r(G)p.m(G)p.r(G)p.m(G)p.r(A)p.m(G)p.r(U)p.m(U)p.r(G)p.m(C)p.r(U)p.m(G)p.r(G)p.m(A)p.r(A)p.m(G)p.r(T)p.r(T)}|RNA2{r(C)p.r(U)p.r(U)p.r(C)p.r(C)p.r(A)p.r(G)p.r(C)p.m(A)p.m(A)p.r(C)p.r(U)p.r(C)p.r(C)p.r(C)p.r(C)p.r(U)p.r(U)p.r(U)p.r(T)p.r(T)}$$$RNA1{StrandType:ss}|RNA2{StrandType:as}$	47
RNA1{m(A)p.r(A)p.m(C)p.r(A)p.m(G)p.r(C)p.m(C)p.r(U)p.m(U)p.r(A)p.m(C)p.r(C)p.m(C)p.r(C)p.m(G)p.r(A)p.m(U)p.r(U)p.m(C)p.r(T)p.r(T)}|RNA2{r(G)p.m(A)p.m(A)p.r(U)p.r(C)p.r(G)p.r(G)p.r(G)p.r(G)p.r(U)p.m(A)p.m(A)p.r(G)p.r(G)p.r(C)p.r(U)p.r(G)p.r(U)p.r(U)p.r(T)p.r(T)}$$$RNA1{StrandType:ss}|RNA2{StrandType:as}$	32
RNA1{m(A)p.r(A)p.m(C)p.r(A)p.m(G)p.r(U)p.m(C)p.r(C)p.m(U)p.r(U)p.r(A)p.m(G)p.r(C)p.m(U)p.r(A)p.r(C)p.m(G)p.r(C)p.r(U)p.r(T)p.r(T)}|RNA2{r(A)p.r(G)p.r(C)p.r(G)p.r(U)p.r(A)p.r(G)p.r(C)p.r(U)p.r(A)p.r(A)p.r(G)p.r(G)p.r(A)p.r(C)p.r(U)p.r(G)p.r(U)p.r(U)p.r(T)p.r(T)}$$$RNA1{StrandType:ss}|RNA2{StrandType:as}$	35
RNA1{m(A)p.r(A)p.m(C)p.r(U)p.m(U)p.r(C)p.m(U)p.r(G)p.m(G)p.r(G)p.m(A)p.r(G)p.m(C)p.r(C)p.m(U)p.r(C)p.m(C)p.r(A)p.m(A)p.r(T)p.r(T)}|RNA2{r(U)p.r(U)p.r(G)p.r(G)p.m(A)p.r(G)p.r(G)p.r(C)p.r(U)p.r(C)p.r(C)p.r(C)p.m(A)p.r(G)p.m(A)p.m(A)p.r(G)p.r(U)p.r(U)p.r(T)p.r(T)}$$$RNA1{StrandType:ss}|RNA2{StrandType:as}$	42
RNA1{m(A)p.r(A)p.m(G)p.r(G)p.m(A)p.r(A)p.m(C)p.r(G)p.m(G)p.r(G)p.m(G)p.r(A)p.m(C)p.r(A)p.m(C)p.r(U)p.m(U)p.r(A)p.m(C)p.r(T)p.r(T)}|RNA2{r(G)p.r(U)p.r(A)p.r(A)p.r(G)p.r(U)p.r(G)p.r(U)p.r(C)p.r(C)p.r(C)p.r(C)p.r(G)p.r(U)p.r(U)p.r(C)p.r(C)p.r(U)p.r(U)p.r(T)p.r(T)}$$$RNA1{StrandType:ss}|RNA2{StrandType:as}$	12
RNA1{m(A)p.r(A)p.m(G)p.r(G)p.m(A)p.r(C)p.m(C)p.r(U)p.m(A)p.r(G)p.m(A)p.r(G)p.m(G)p.r(A)p.m(G)p.r(U)p.m(C)p.r(A)p.m(C)p.r(T)p.r(T)}|RNA2{m(G)p.r(U)p.m(G)p.r(A)p.r(C)p.r(U)p.r(C)p.r(C)p.r(U)p.r(C)p.r(U)p.r(A)p.m(G)p.m(G)p.r(U)p.r(C)p.r(C)p.r(U)p.r(U)p.r(T)p.r(T)}$$$RNA1{StrandType:ss}|RNA2{StrandType:as}$	36
RNA1{m(A)p.r(A)p.m(G)p.r(G)p.m(A)p.r(G)p.m(A)p.r(U)p.m(C)p.r(A)p.m(A)p.r(C)p.m(A)p.r(U)p.m(U)p.r(U)p.m(U)p.r(C)p.m(A)p.r(T)p.r(T)}|RNA2{m(U)p.r(G)p.m(A)p.r(A)p.m(A)p.r(A)p.m(U)p.r(G)p.m(U)p.r(U)p.m(G)p.r(A)p.m(U)p.r(C)p.m(U)p.r(C)p.m(C)p.r(U)p.m(U)p.r(T)p.r(T)}$$$RNA1{StrandType:ss}|RNA2{StrandType:as}$	75
RNA1{m(A)p.r(A)p.m(G)p.r(G)p.m(A)p.r(G)p.m(A)p.r(U)p.m(C)p.r(A)p.m(A)p.r(C)p.m(A)p.r(U)p.m(U)p.r(U)p.m(U)p.r(C)p.m(A)p.r(T)p.r(T)}|RNA2{r(U)p.m(G)p.r(A)p.m(A)p.r(A)p.m(A)p.r(U)p.m(G)p.r(U)p.m(U)p.r(G)p.m(A)p.r(U)p.m(C)p.r(U)p.m(C)p.r(C)p.m(U)p.r(U)p.r(T)p.r(T)}$$$RNA1{StrandType:ss}|RNA2{StrandType:as}$	65
RNA1{m(A)p.r(A)p.m(G)p.r(G)p.m(C)p.r(A)p.m(U)p.r(G)p.m(C)p.r(U)p.m(U)p.r(C)p.m(G)p.r(G)p.m(A)p.r(A)p.m(A)p.r(C)p.m(U)p.r(T)p.r(T)}|RNA2{r(A)p.m(G)p.r(U)p.r(U)p.r(U)p.r(C)p.r(C)p.r(G)p.r(A)p.r(A)p.m(G)p.r(C)p.r(A)p.r(U)p.m(G)p.r(C)p.r(C)p.r(U)p.r(U)p.r(T)p.r(T)}$$$RNA1{StrandType:ss}|RNA2{StrandType:as}$	60
RNA1{m(A)p.r(A)p.m(U)p.r(A)p.m(A)p.r(G)p.m(C)p.r(A)p.m(G)p.r(C)p.m(U)p.r(C)p.m(G)p.r(C)p.m(G)p.r(C)p.m(U)p.r(C)p.m(C)p.r(T)p.r(T)}|RNA2{r(G)p.r(G)p.m(A)p.r(G)p.r(C)p.r(G)p.r(C)p.r(G)p.m(A)p.r(G)p.r(C)p.r(U)p.r(G)p.r(C)p.r(U)p.r(U)p.m(A)p.r(U)p.r(U)p.r(T)p.r(T)}$$$RNA1{StrandType:ss}|RNA2{StrandType:as}$	32
